Results from ChEMBL document CHEMBL1201862, “PubChem BioAssay data set” (2004).
Active and inactive are the calls of the source.

Tests used:
[1] = loss of viability in HepG2 cells – cell-based, CellTiter-Glo, cherry-picked, cytotoxicity control for Shn3 inhibitor project, dose response (AID 624134); type: functional
[2] = blockers of HIV-1 envelope-mediated cell-cell fusion – cherry-pick, dose response (AID 652057); type: functional, cell-based
[3] = system: HEK293; test: cells; type: functional, cell-based; conditions: Homo sapiens
[4] = system: HEK293; test: cells; type: functional, cell-based; conditions: Homo sapiens; remark: listed apart in the source
[5] = alpha-synuclein stem-loop luciferase translation blockers – H4 neuroglioma cells, luminescence, confirmation (AID 1988); type: functional, cell-based
[6] = non-specific 3'UTR reporter inhibition in Clone20-Shn3RL – cell-based, Renilla luciferase, cherry-picked, counter-screen for Shn3 inhibitor project, dose response (AID 624133); type: functional
[7] = general mammalian cell viability loss – activator set, cherry-pick, cytotoxicity control for miR-122 modulator project, dose response (AID 720690); type: functional, cell-based;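 also: HEK293T human cells scored for general mammalian cytotoxicity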
[8] = Luminescence Cell-Based Dose Retest to Confirm Inhibitors of Cancer Stem Cells. [Related pubchem assays (depositor defined):AID2717, AID2721]; type: functional; conditions: Homo sapiens
[9] = reduction of Shn3 3'UTR-driven luciferase in osteoblasts – cell-based, Clone20 osteoblasts, firefly luciferase, cherry-picked, dose response (AID 624132); type: functional;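 also: firefly luciferase luminescence from reporter carrying the Shn3 3'UTR in osteoblasts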
[10] = off-target signal loss in HeLa-CEM21 co-culture – HeLa F-luc CTL cells, cherry-picked, counter-screen for HIV-1 Env fusion inhibitor project, dose response (AID 652040); type: functional, cell-based;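 also: potency for signal decrease marking cytotoxic or nonspecific inhibition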
[11] = viability of HCT116 lacking mutant beta-catenin – cell-based, human colon tumor, dose response (AID 1045); type: functional;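 also: HCT116 colon tumor cells with beta catenin knocked out; cells exposed to compound for 60 hours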
[12] = viability of PTEN-deleted HCT116 cells – cell-based, HCT116 PTEN knockout, dose response (AID 1047); type: functional;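 also: HCT116 colon tumor cells with PTEN knocked out; cells exposed to compound for 60 hours before readout; potency for loss of cell viability measured by luminescence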
[13] = system: HEK293; test: inhibition of NOD1-driven NF-kB reporter – cell-based, luminescence, uHTS, primary screen (AID 1578); type: functional; conditions: Homo sapiens
[14] = viability loss in CEM21 cells – cell-based, CellTiter-Glo luminescence, cherry-picked, cytotoxicity control for viral fusion inhibitor project, dose response (AID 652042); type: functional;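 also: potency for signal decrease meaning cytotoxicity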
[15] = general mammalian cell viability loss – inhibitor set, cherry-pick, set 2, cytotoxicity control for miR-122 modulator project, dose response (AID 720697); type: functional, cell-based
[16] = Trypanosoma cruzi growth suppression in host cells – NIH3T3 host cells, beta-gal luminescence, confirmation (AID 2044); type: functional, cell-based;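 also: intracellular parasites grown in NIH/3T3 mouse fibroblasts as host cells; luminescent beta-galactosidase reporter signal from transgenic T. cruzi replicating inside host cells; inhibitors lower the luminescence signal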
[17] = system: INS1; test: INS-1E survival protection against cytokine death – cell-based, luminescence, retest, dose response (AID 449756); type: functional; conditions: Rattus norvegicus;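 also: cell death triggered by IL-1 beta plus TNF-alpha plus IFN-gamma mixture; protective hits raise ATP signal compared with cytokine alone wells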
[18] = system: HEK293; test: NOD2 signaling inhibitors in MDP-stimulated cells, cell-based, uHTS, luminescence (AID 2001); type: functional; conditions: Homo sapiens
[19] = NIH3T3 cell viability loss – ATP luminescence, mouse fibroblasts, counter-screen, dose response (AID 2010); type: functional, cell-based;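 also: cells exposed to compound for about 90 hours before reading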
[20] = target: Photoreceptor-specific nuclear receptor (Homo sapiens, UniProt Q9Y5X4); type: functional, cell-based;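 also: CHO-S cells with Gal4-NCOR and VP16-NR2E3 two-hybrid luciferase reporter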
[21] = luciferase reporter signal suppression in cells – H4 neuroglioma cells, luminescence, dose response (AID 1990); type: functional, cell-based
[22] = Luminescence Cell-Based Dose Response HTS to Identify Inhibitors of 5'UTR Stem-Loop Driven Prion Protein mRNA Translation in H4 Neuroglioblastoma Cells. [Related pubchem assays: 1827 (Project Summary), 1813 (Primary HTS)]; type: functional
[23] = target: T1, Endoribonuclease toxin MazF (Escherichia coli K-12, UniProt P0AE70); test: activation of MazEF endoribonuclease cleavage – biochemical, fluorescence, single-stranded RNA substrate, uHTS hits, dose response (AID 588481); type: functional
T1 sequence (P0AE70 whole entry): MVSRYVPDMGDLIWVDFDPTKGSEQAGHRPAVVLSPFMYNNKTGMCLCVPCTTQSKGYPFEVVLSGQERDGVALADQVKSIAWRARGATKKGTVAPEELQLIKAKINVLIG

[24] = target: T1, Endoribonuclease toxin MazF; test: substrate-only fluorescence increase artefacts – biochemical, single-stranded RNase substrate, counter-screen for MazEF activator project, dose response (AID 588502); type: functional
[25] = viability loss in HepG2 hepatoma cells – cell-based, ATP luminescence, cherry-pick, activator set 2, cytotoxicity control, dose response (AID 1053143); type: functional
[26] = target: Major prion protein (Homo sapiens, UniProt P04156); type: functional, cell-based
[27] = cells
[28] = HGIII-sPLA2 enzyme inhibition potency – biochemical, QFRET, IC50, dose response (AID 743457);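 also: green fluorescence rise as the enzyme cleaves BODIPY PC-A2 in liposomes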
[29] = target: Disintegrin and metalloproteinase domain-containing protein 17 (Homo sapiens, UniProt P78536); test: exosite inhibitors of ADAM17, dose response, biochemical (AID 743260)

Question: With `CCN(CC)S(=O)(=O)c1ccc(NC(=O)Nc2cccc(C(F)(F)F)c2)cc1` as the molecule, how does the AC50 [1] read?
Answer: 27.6 µM (active)

Question: What about the AC50 [2] of the same molecule?
Answer: 9.67 µM (active)

Question: What about the IC50 [3] of the same molecule?
Answer: 3.14 µM (active)

Question: And the IC50 [4]?
Answer: 8.73 µM (active)

Question: And the EC50 [5]?
Answer: 11.1 µM (active)

Question: What about the AC50 [6] of the same molecule?
Answer: 10.8 µM (active)

Question: What about the AC50 [7] of the same molecule?
Answer: 5.75 µM (active)

Question: And the AC50 [8]?
Answer: 2.13 µM (active)

Question: What about the AC50 [9] of the same molecule?
Answer: 5.6 µM (active)

Question: And the AC50 [10]?
Answer: 10.3 µM (active)

Question: What about the EC50 [11] of the same molecule?
Answer: 6.35 µM (active)

Question: And the EC50 [12]?
Answer: 4.56 µM (active)

Question: And the EC50 [13]?
Answer: > 20 µM (inactive)

Question: What about the AC50 [14] of the same molecule?
Answer: 13.6 µM (active)

Question: And the AC50 [15]?
Answer: 9.71 µM (active)

Question: What about the EC50 [16] of the same molecule?
Answer: 1.67 µM (active)

Question: And the AC50 [17]?
Answer: 4.6 µM (active)

Question: What about the IC50 [18] of the same molecule?
Answer: 4.48 µM (inactive)

Question: And the EC50 [19]?
Answer: > 60 µM (not active)

Question: And the IC50 [20]?
Answer: 6.94 µM (active)

Question: What about the EC50 [21] of the same molecule?
Answer: > 120 µM (not active)

Question: What about the EC50 [22] of the same molecule?
Answer: 14.9 µM (active)

Question: Which EC50 [23] does the source give for `Nc1c(C(=O)c2ccccc2)sc2nsc(SCCN3CCOCC3)c12` here?
Answer: > 99 µM (inactive)

Question: And the EC50 [24]?
Answer: > 99 µM (inactive)

Question: And the AC50 [25]?
Answer: 51.6 µM (active)

Question: Which AC50 [25] does the source give for `Cc1noc(C)c1C(=O)Nc1nc2ccc(F)cc2s1` here?
Answer: > 52 µM (inactive)

Question: For `Brc1cc(Br)c2nc3c(cc2c1)CCC3`, which IC50 [26] is on record?
Answer: 5.89 µM (active)

Question: And the IC50 [27]?
Answer: > 138 µM (inactive)

Question: With `CCn1c(S)nnc1-c1csc(C(C)C)c1` as the molecule, how does the IC50 [28] read?
Answer: > 122 µM (inactive)

Question: Which IC50 [29] does the source give for `COc1ccc(-c2n[nH]c(=S)n2-c2ccc(Br)cc2)cc1OC` here?
Answer: 41.6 µM (inactive)
